Measured values from patent publication US7902254B1, “Method for treating conditions mediated by PPAR using macelignan” (Newtree Co., Ltd., priority 2005, dated 2011).

Experiments:
[1] = system: target genes of PPARα (CD36, CPT-1, PDK4, ACO); assay: Expression of target genes of PPARα in SK-HEP-1 liver cells (RT-PCR); type: cell-based; conditions: SK-HEP-1 cells, 1, 5, 10 and 25 μM, 24 hours, vs control
Description: SK-HEP-1 liver cells ([…]) cultured in a DMEM medium containing 10% FBS were pipetted into a multi-well plate in a cell count of 1×10^6 cells per well, and then further cultured for 5 hours. Different concentrations (1, 5, 10 and 25 μM) of macelignan were added to the medium of the cultured cells, and then the cells were left for 24 hours. The cells were collected and the total RNA was isolated by using TRIZOL (Invitrogen, USA). The total RNA isolated as described above was determined and cDNA was synthesized by using reverse transcriptase at 42° C. for 20 minutes with same amounts of RNA. The cDNA was subjected to RT-PCR by repeating 30 cycles of 95° C./1 minute, 56° C./30 seconds and 72° C./2 minutes with the following primers and Taq polymerase: primers for CD36 amplification (SEQ ID NO: 5(CGGCGATGAGAAAGCAGAA) and SEQ ID NO: 6(CAACCAGGCCCAGGAGC)), primers for CPT-1 amplification (SEQ ID NO: 7([…]) and SEQ ID NO: 8([…])), primers for PDK4 amplification (SEQ ID NO: 9([…]) and SEQ ID NO: 10(ATAAGTTAAGTGGGCCTGG)), and primers for ACO amplification (SEQ ID NO: 11([…]) and SEQ ID NO: 12([…])).

[2] = system: obesity/diabetes mice (db/db mice); assay: Effect upon hyperlipidemia and cardiovascular diseases in obesity/diabetes mouse model; type: in vivo; conditions: 14 days
Description: To investigate effects of macelignan upon the treatment of hyperlipidemia and cardiovascular diseases, seven mice of 10 week-aged obesity/diabetes mice (db/db mice) were used per test group. To the test groups, macelignan suspended in 0.25% carboxymethyl cellulose was orally administered in an administration dose of 5 mg/kg (body weight), 10 mg/kg (body weight) and 25 mg/kg (body weight), once per day at a predetermined time, for 14 days. As a control, 0.25% carboxymethyl cellulose was orally administered alone to normal mice in the same dose as administered to the test group. As another control, 0.25% carboxymethyl cellulose was orally administered alone to obesity/diabetes mice in the same dose as administered to the test group. As still another control, 10 mg/kg (body weight) of troglitazone was orally administered. Fourteen days after the administration, triglyceride concentration in blood (triglyceride measuring kit, Wako, Japan), free fatty acid concentration in blood (free fatty acid measuring kit, Wako, Japan), total cholesterol content in blood (ASAN T-CHO-Lq Reagents, Asan Pharmaceutical Co. Ltd., Korea), HDL-cholesterol content in blood (ASAN HDL-Cholesterol, Asan Pharmaceutical Co. Ltd., Korea), IL-6 content in blood (IL-6 Quantikine ELISA, R&D systems, USA) and TNF-α content in blood were measured for the test groups and the controls.

[3] = system: obesity/diabetes mice (db/db mice); assay: Anti-obesity effect in obesity/diabetes mouse model; type: in vivo; conditions: for body weight / intramuscular triglyceride accumulation / white adipose tissue weight: 14th day, db/db mice
Description: To investigate the anti-obesity effect of macelignan, seven mice of 10 week-aged obesity/diabetes mice (db/db mice) were used per test group. To the test groups, macelignan suspended in […] carboxymethyl cellulose was orally administered in an administration dose of 5 mg/kg (body weight), 10 mg/kg (body weight) and 25 mg/kg (body weight), once per day at a predetermined time, for 14 days. As a control, 0.25% carboxymethyl cellulose was orally administered alone to normal mice in the same dose as administered to the test group. As another control, 0.25% carboxymethyl cellulose was orally administered alone to obesity/diabetes mice in the same dose as administered to the test group. As still another control, 10 mg/kg (body weight) of troglitazone was orally administered. From 6 days before the administration, diet intake and body weight of each obesity/diabetes mouse were measured once per three days. Additionally, on the 14th day after the oral administration, white adipose tissue weight and the amount of triglyceride accumulated in muscle cell were measured (Triglyceride measuring kit, Wako, No. 432-40201, Japan).

[4] = system: obesity/diabetes mice (db/db mice); assay: Effect upon fatty liver in obesity/diabetes mouse model; type: in vivo; conditions: 25 mg/kg oral, 14 days
Description: To investigate effects of macelignan upon the prevention and treatment of fatty liver, seven mice of 10 week-aged obesity/diabetes mice (db/db mice) were used per test group. To the test groups, macelignan suspended in 0.25% carboxymethyl cellulose was orally administered in an administration dose of 5 mg/kg (body weight), 10 mg/kg (body weight) and 25 mg/kg (body weight), once per day at a predetermined time, for 14 days in all. As a control, 0.25% carboxymethyl cellulose was orally administered alone to normal mice in the same dose as administered to the test group. As another control, 0.25% carboxymethyl cellulose was orally administered alone to obesity/diabetes mice in the same dose as administered to the test group. As still another control, 10 mg/kg (body weight) of troglitazone was orally administered. Fourteen days after the oral administration, the liver tissue was isolated and crushed to extract the total lipid and fat contents, and then the triglyceride content accumulated in the liver tissue was measured.

COc1cc(C[C@H](C)[C@H](C)Cc2ccc3c(c2)OCO3)ccc1O (single isomer, unassigned) [macelignan]
mRNA expression of CD36, CPT-1, PDK-4 and ACO [1]: significantly increased
Free fatty acid in blood ([2]; 5 mg/kg oral): 1.26 ± 0.19 mEq/l
HDL-cholesterol in blood ([2]; 5 mg/kg oral): 43.5 ± 6.73 mg/dL
IL-6 in blood ([2]; 5 mg/kg oral): 21.42 ± 11.42 pg/mL
TNF-α in blood ([2]; 5 mg/kg oral): 36.92 ± 16.27 pg/mL
Total cholesterol in blood ([2]; 5 mg/kg oral): 119 ± 13.8 mg/dL
Triglyceride in blood ([2]; 5 mg/kg oral): 98.71 ± 36.62 mg/dL
Free fatty acid in blood ([2]; 10 mg/kg oral): 1.16 ± 0.31 mEq/l
HDL-cholesterol in blood ([2]; 10 mg/kg oral): 42.2 ± 7.29 mg/dL
IL-6 in blood ([2]; 10 mg/kg oral): 12.04 ± 5.47 pg/mL
TNF-α in blood ([2]; 10 mg/kg oral): 16.41 ± 9.60 pg/mL
Total cholesterol in blood ([2]; 10 mg/kg oral): 110 ± 15.2 mg/dL
Triglyceride in blood ([2]; 10 mg/kg oral): 91.71 ± 44.04 mg/dL
Free fatty acid in blood ([2]; 25 mg/kg oral): 1.14 ± 0.15 mEq/l
HDL-cholesterol in blood ([2]; 25 mg/kg oral): 46.6 ± 3.89 mg/dL
IL-6 in blood ([2]; 25 mg/kg oral): 4.86 ± 2.46 pg/mL
TNF-α in blood ([2]; 25 mg/kg oral): 27.54 ± 9.77 pg/mL
Total cholesterol in blood ([2]; 25 mg/kg oral): 110 ± 23.7 mg/dL
Triglyceride in blood ([2]; 25 mg/kg oral): 84.00 ± 31.24 mg/dL
body weight ([3]; 5 mg/kg oral): 46.32 ± 2.31 g
intramuscular triglyceride accumulation ([3]; 5 mg/kg oral): 24.7 ± 4.74 mg
white adipose tissue weight ([3]; 5 mg/kg oral): 4230 ± 284 mg
body weight ([3]; 10 mg/kg oral): 43.8 ± 2.94 g
intramuscular triglyceride accumulation ([3]; 10 mg/kg oral): 22.8 ± 5.76 mg
white adipose tissue weight ([3]; 10 mg/kg oral): 3900 ± 279 mg
body weight ([3]; 25 mg/kg oral): 41.80 ± 1.56 g
intramuscular triglyceride accumulation ([3]; 25 mg/kg oral): 20.2 ± 3.82 mg
white adipose tissue weight ([3]; 25 mg/kg oral): 2690 ± 154 mg
diet intake ([3]; 5, 10 and 25 mg/kg oral, 14 days, test groups vs controls): no significant difference
triglyceride content in the liver tissue [4]: 6.30 ± 11.59 mg/g
